Patent US12252524B2, “GIP/GLP1 co-agonist compounds” (Eli Lilly and Company, priority 2018, dated 2025)
Numbered stars: 1 amine (or outer) side, 2 acyl side, 3 side chain; on linkers, the order of the positions; unused ones are H or OH. Square brackets hold non-standard residues; d marks the D form. Side chains are listed from the residue outwards. Peptide text beside a SMILES is read from it. * marks the point of attachment. C20 diacid = O=C(O)CCCCCCCCCCCCCCCCCCC(=O)*; C18 diacid = O=C(O)CCCCCCCCCCCCCCCCC(=O)*; αMePhe(2-F) = C[C@](N)(Cc1ccccc1F)C(=O)O; γGlu = O=C(O)[C@H](CCC(=O)[*:2])N[*:1]; αMeF = C[C@](N)(Cc1ccccc1)C(=O)O; αMeL = CC(C)C[C@](C)(N)C(=O)O; Dab = NCC[C@H](N)C(=O)O; Dap = NC[C@H](N)C(=O)O; AEEA = NCCOCCOCC(=O)O; Aib = CC(C)(N)C(=O)O

How the values were obtained:
[1] = target: human GLP-1R (Homo sapiens, UniProt P43220); assay: [125I]-GLP-1 binding (SPA), human GLP-1 receptor; parameters: expressed in transfected cells; crude membranes; settings: read-out: hGLP1R Ki, (nM) (SEM, n)
Sequence of human GLP-1R (P43220 24-463): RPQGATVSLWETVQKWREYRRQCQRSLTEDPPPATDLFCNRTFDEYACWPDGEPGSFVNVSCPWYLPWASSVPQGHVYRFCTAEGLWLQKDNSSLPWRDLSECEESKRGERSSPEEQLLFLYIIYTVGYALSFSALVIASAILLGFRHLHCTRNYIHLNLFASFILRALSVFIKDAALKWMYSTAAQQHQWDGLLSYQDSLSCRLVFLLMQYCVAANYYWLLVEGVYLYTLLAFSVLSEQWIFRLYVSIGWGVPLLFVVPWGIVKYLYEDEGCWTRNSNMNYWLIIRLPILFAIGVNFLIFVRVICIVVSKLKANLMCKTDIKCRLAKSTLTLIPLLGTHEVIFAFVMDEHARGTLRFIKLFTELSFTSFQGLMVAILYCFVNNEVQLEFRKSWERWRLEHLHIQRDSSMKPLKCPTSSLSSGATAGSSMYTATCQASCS
How it was run: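 Assay buffer: HEPES 25 mM, pH 7.4, CaCl2 2.5 mM, MgCl2 1 mM, with EDTA-free protease inhibitors. Receptor came from crude cell membranes prepared by homogenization and centrifugation at 4° C. IC50s came from four-parameter fits (maximum, minimum, IC50, Hill slope) and were expressed as Ki geometric means with SEM.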

[2] = target: human GLP-1 receptor (GLP-1R) (Homo sapiens, UniProt P43220); assay: cAMP pharmacological functional assay in presence of casein, hGLP-1R; type: cell-based; settings: HEK293 cells expressing hGLP-1R, 0.1% Casein, geometric mean; read-out: hGLP1R cAMP Rel EC50 nM (SEM, n)
Sequence of human GLP-1 receptor (GLP-1R) (P43220 24-463): as above

[3] = target: T1, human Gcg receptor (Homo sapiens, UniProt P47871); assay: [125I]-Glucagon binding (SPA), human Gcg receptor; settings: read-out: hGLcgR Ki, nM (SEM, n)
T1 construct: expressed in transfected cells; crude membranes
T1 sequence (P47871 26-477): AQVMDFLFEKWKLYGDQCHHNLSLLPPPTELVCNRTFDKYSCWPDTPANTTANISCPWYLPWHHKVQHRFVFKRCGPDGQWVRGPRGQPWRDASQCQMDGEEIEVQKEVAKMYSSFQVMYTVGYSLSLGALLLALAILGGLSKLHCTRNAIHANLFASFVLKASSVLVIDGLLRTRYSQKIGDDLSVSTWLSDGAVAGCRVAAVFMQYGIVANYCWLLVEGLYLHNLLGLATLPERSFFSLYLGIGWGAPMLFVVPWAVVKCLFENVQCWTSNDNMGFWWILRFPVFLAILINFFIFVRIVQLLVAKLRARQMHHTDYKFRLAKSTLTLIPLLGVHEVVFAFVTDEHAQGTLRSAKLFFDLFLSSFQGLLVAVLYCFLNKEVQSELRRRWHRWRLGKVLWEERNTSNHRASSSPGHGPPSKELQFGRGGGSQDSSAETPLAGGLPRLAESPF
How it was run: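 Crude membranes from cells expressing the receptor, prepared by hypotonic lysis in 50 mM Tris HCl pH 7.5 with protease inhibitors, homogenization and differential centrifugation, were used in a WGA-bead SPA. Binding buffer: 25 mM HEPES pH 7.4, 2.5 mM CaCl2, 1 mM MgCl2, bacitracin, Tween-20.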

[4] = target: T2, human GIP receptor (Homo sapiens, UniProt P48546); assay: [125I]-GIP binding (SPA), human GIP receptor; settings: read-out: hGIPR Ki, nM (SEM, n)
T2 construct: expressed in transfected cells; crude membranes
T2 sequence (P48546 22-466): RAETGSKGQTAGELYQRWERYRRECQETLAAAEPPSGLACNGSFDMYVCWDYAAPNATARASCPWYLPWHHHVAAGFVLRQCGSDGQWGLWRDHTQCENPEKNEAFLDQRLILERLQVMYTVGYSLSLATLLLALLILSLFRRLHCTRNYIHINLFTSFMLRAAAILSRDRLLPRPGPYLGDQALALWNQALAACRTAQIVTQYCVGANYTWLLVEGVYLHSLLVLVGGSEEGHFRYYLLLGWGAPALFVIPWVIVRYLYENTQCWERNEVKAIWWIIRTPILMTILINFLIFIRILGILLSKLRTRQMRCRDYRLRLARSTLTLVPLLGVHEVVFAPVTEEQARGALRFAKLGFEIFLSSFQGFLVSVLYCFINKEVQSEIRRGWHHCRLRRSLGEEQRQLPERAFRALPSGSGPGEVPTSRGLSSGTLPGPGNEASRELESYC

[5] = target: T3, gastric inhibitory peptide receptor (GIPR) (Homo sapiens, UniProt P48546); assay: cAMP pharmacological functional assay in presence of casein, hGIPR; type: cell-based; settings: HEK293 cells expressing hGIPR, 0.1% Casein, geometric mean; read-out: hGIPR cAMP Rel EC50 nM (SEM, n)
T3 sequence (P48546 22-466): T2 sequence (P48546 22-466)

| Compound | Ki [1] | EC50 [2] | Ki [3] | Ki [4] | EC50 [5] |
| --- | --- | --- | --- | --- | --- |
| CC[C@H](C)[C@H](NC(=O)[C@H](CC(C)C)NC(=O)[C@H](Cc1ccc(O)cc1)NC(=O)[C@@H](CCC(=O)O)NC(=O)[C@@H](NC(=O)[C@H](Cc1ccccc1)NC(=O)[C@H](CCC(=O)O)NC(=O)C(C)(C)NC(=O)[C@H](CCC(N)=O)NC(=O)[C@H](C)NC(=O)[C@H](CCCCNC(=O)COCCOCCNC(=O)COCCOCCNC(=O)CC[C@H](NC(=O)CCCCCCCCCCCCCCCCC(=O)O)C(=O)O)NC(=O)[C@H](CCN)NC(=O)[C@H](CC(=O)O)NC(=O)[C@H](CC(C)C)NC(=O)[C@](C)(CC(C)C)NC(=O)[C@@H](NC(=O)[C@H](CO)NC(=O)[C@H](Cc1ccc(O)cc1)NC(=O)[C@H](CC(=O)O)NC(=O)[C@H](CO)NC(=O)[C@@H](NC(=O)[C@](C)(Cc1ccccc1F)NC(=O)[C@@H](NC(=O)CNC(=O)[C@H](CCC(=O)O)NC(=O)C(C)(C)NC(=O)[C@@H](N)Cc1ccc(O)cc1)[C@@H](C)O)[C@@H](C)O)[C@@H](C)CC)[C@@H](C)CC)C(=O)N[C@@H](CCC(=O)O)C(=O)NCC(=O)NCC(=O)N1CCC[C@H]1C(=O)N[C@@H](CO)C(=O)N[C@@H](CO)C(=O)NCC(=O)N[C@@H](C)C(=O)N1CCC[C@H]1C(=O)N1CCC[C@H]1C(=O)N1CCC[C@H]1C(=O)N[C@@H](CO)C(N)=O [Example 209] (H-Y[Aib]EGT[αMePhe(2-F)]TSDYSI[αMeL]LD[Dab]K([AEEA-AEEA-γGlu-C18 diacid])AQ[Aib]EFI[dE]YLIEGGPSSGAPPPS-NH2) | 1.43 nM | 0.0374 nM | > 1060 nM | 0.0664 nM | 0.0308 nM |
| CC[C@H](C)[C@H](NC(=O)[C@H](CC(C)C)NC(=O)[C@H](Cc1ccc(O)cc1)NC(=O)[C@@H](CCC(=O)O)NC(=O)[C@@H](NC(=O)[C@H](Cc1ccccc1)NC(=O)[C@H](CCC(=O)O)NC(=O)C(C)(C)NC(=O)[C@H](CCC(N)=O)NC(=O)[C@H](C)NC(=O)[C@H](CCCCNC(=O)COCCOCCNC(=O)COCCOCCNC(=O)CC[C@H](NC(=O)CCCCCCCCCCCCCCCCC(=O)O)C(=O)O)NC(=O)[C@H](CN)NC(=O)[C@H](CC(=O)O)NC(=O)[C@H](CC(C)C)NC(=O)[C@](C)(CC(C)C)NC(=O)[C@@H](NC(=O)[C@H](CO)NC(=O)[C@H](Cc1ccc(O)cc1)NC(=O)[C@H](CC(=O)O)NC(=O)[C@H](CO)NC(=O)[C@@H](NC(=O)[C@](C)(Cc1ccccc1F)NC(=O)[C@@H](NC(=O)CNC(=O)[C@H](CCC(=O)O)NC(=O)C(C)(C)NC(=O)[C@@H](N)Cc1ccc(O)cc1)[C@@H](C)O)[C@@H](C)O)[C@@H](C)CC)[C@@H](C)CC)C(=O)N[C@@H](CCC(=O)O)C(=O)NCC(=O)NCC(=O)N1CCC[C@H]1C(=O)N[C@@H](CO)C(=O)N[C@@H](CO)C(=O)NCC(=O)N[C@@H](C)C(=O)N1CCC[C@H]1C(=O)N1CCC[C@H]1C(=O)N1CCC[C@H]1C(=O)N[C@@H](CO)C(N)=O [Example 210] (H-Y[Aib]EGT[αMePhe(2-F)]TSDYSI[αMeL]LD[Dap]K([AEEA-AEEA-γGlu-C18 diacid])AQ[Aib]EFI[dE]YLIEGGPSSGAPPPS-NH2) | 1.58 nM | 0.0432 nM | > 1010 nM | 0.0399 nM | 0.0383 nM |
| CC[C@H](C)[C@H](NC(=O)[C@H](CC(C)C)NC(=O)[C@H](Cc1ccc(O)cc1)NC(=O)[C@@H](CCC(=O)O)NC(=O)[C@@H](NC(=O)[C@H](Cc1ccccc1)NC(=O)[C@H](CCC(=O)O)NC(=O)C(C)(C)NC(=O)[C@H](CCC(N)=O)NC(=O)[C@H](C)NC(=O)[C@H](CCCCNC(=O)COCCOCCNC(=O)COCCOCCNC(=O)CC[C@H](NC(=O)CCCCCCCCCCCCCCCCCCC(=O)O)C(=O)O)NC(=O)[C@H](CCCCN)NC(=O)[C@H](CC(=O)O)NC(=O)[C@H](CC(C)C)NC(=O)[C@](C)(CC(C)C)NC(=O)[C@@H](NC(=O)[C@H](CO)NC(=O)[C@H](Cc1ccc(O)cc1)NC(=O)[C@H](CC(=O)O)NC(=O)[C@H](CO)NC(=O)[C@@H](NC(=O)[C@](C)(Cc1ccccc1F)NC(=O)[C@@H](NC(=O)CNC(=O)[C@H](CCC(=O)O)NC(=O)C(C)(C)NC(=O)[C@@H](N)Cc1ccc(O)cc1)[C@@H](C)O)[C@@H](C)O)[C@@H](C)CC)[C@@H](C)CC)C(=O)N[C@@H](CCC(=O)O)C(=O)NCC(=O)NCC(=O)N1CCC[C@H]1C(=O)N[C@@H](CO)C(=O)N[C@@H](CO)C(=O)NCC(=O)N[C@@H](C)C(=O)N1CCC[C@H]1C(=O)N1CCC[C@H]1C(=O)N1CCC[C@H]1C(=O)N[C@@H](CO)C(N)=O [Example 212] (H-Y[Aib]EGT[αMePhe(2-F)]TSDYSI[αMeL]LDKK([AEEA-AEEA-γGlu-C20 diacid])AQ[Aib]EFI[dE]YLIEGGPSSGAPPPS-NH2) | 2.76 nM | 0.0572 nM | 205 nM | 0.0978 nM | 0.0501 nM |
| CC[C@H](C)[C@H](NC(=O)[C@H](CC(C)C)NC(=O)[C@H](Cc1ccc(O)cc1)NC(=O)[C@@H](CCC(=O)O)NC(=O)[C@@H](NC(=O)[C@H](Cc1ccccc1)NC(=O)[C@H](CCC(=O)O)NC(=O)C(C)(C)NC(=O)[C@H](CCC(N)=O)NC(=O)[C@H](C)NC(=O)[C@H](CCCCNC(=O)COCCOCCNC(=O)COCCOCCNC(=O)CC[C@H](NC(=O)CCCCCCCCCCCCCCCCC(=O)O)C(=O)O)NC(=O)[C@H](CCC(=O)O)NC(=O)[C@H](CC(=O)O)NC(=O)[C@H](CC(C)C)NC(=O)[C@](C)(CC(C)C)NC(=O)[C@@H](NC(=O)[C@H](CO)NC(=O)[C@H](Cc1ccc(O)cc1)NC(=O)[C@H](CC(=O)O)NC(=O)[C@H](CO)NC(=O)[C@@H](NC(=O)[C@](C)(Cc1ccccc1)NC(=O)[C@@H](NC(=O)CNC(=O)[C@H](CCC(=O)O)NC(=O)C(C)(C)NC(=O)[C@@H](N)Cc1ccc(O)cc1)[C@@H](C)O)[C@@H](C)O)[C@@H](C)CC)[C@@H](C)CC)C(=O)N[C@@H](CCC(=O)O)C(=O)NCC(=O)NCC(=O)N1CCC[C@H]1C(=O)N[C@@H](CO)C(=O)N[C@@H](CO)C(=O)NCC(=O)N[C@@H](C)C(=O)N1CCC[C@H]1C(=O)N1CCC[C@H]1C(=O)N1CCC[C@H]1C(=O)N[C@@H](CO)C(N)=O [Example 213] (H-Y[Aib]EGT[αMeF]TSDYSI[αMeL]LDEK([AEEA-AEEA-γGlu-C18 diacid])AQ[Aib]EFI[dE]YLIEGGPSSGAPPPS-NH2) | 2.75 nM | 0.071 nM | 544 nM | 0.365 nM | 0.0523 nM |
| CC[C@H](C)[C@H](NC(=O)[C@H](CC(C)C)NC(=O)[C@H](Cc1ccc(O)cc1)NC(=O)[C@@H](CCC(=O)O)NC(=O)[C@@H](NC(=O)[C@H](Cc1ccccc1)NC(=O)[C@H](CCC(=O)O)NC(=O)C(C)(C)NC(=O)[C@H](CCC(N)=O)NC(=O)[C@H](C)NC(=O)[C@H](CCCCNC(=O)COCCOCCNC(=O)COCCOCCNC(=O)CCCCCCCCCCCCCCCCC(=O)O)NC(=O)[C@H](CCC(=O)O)NC(=O)[C@H](CC(=O)O)NC(=O)[C@H](CC(C)C)NC(=O)[C@](C)(CC(C)C)NC(=O)[C@@H](NC(=O)[C@H](CO)NC(=O)[C@H](Cc1ccc(O)cc1)NC(=O)[C@H](CC(=O)O)NC(=O)[C@H](CO)NC(=O)[C@@H](NC(=O)[C@](C)(Cc1ccccc1F)NC(=O)[C@@H](NC(=O)CNC(=O)[C@H](CCC(=O)O)NC(=O)C(C)(C)NC(=O)[C@@H](N)Cc1ccc(O)cc1)[C@@H](C)O)[C@@H](C)O)[C@@H](C)CC)[C@@H](C)CC)C(=O)N[C@@H](CCC(=O)O)C(=O)NCC(=O)NCC(=O)N1CCC[C@H]1C(=O)N[C@@H](CO)C(=O)N[C@@H](CO)C(=O)NCC(=O)N[C@@H](C)C(=O)N1CCC[C@H]1C(=O)N1CCC[C@H]1C(=O)N1CCC[C@H]1C(=O)N[C@@H](CO)C(N)=O [Example 214] (H-Y[Aib]EGT[αMePhe(2-F)]TSDYSI[αMeL]LDEK([AEEA-AEEA-C18 diacid])AQ[Aib]EFI[dE]YLIEGGPSSGAPPPS-NH2) | 1.99 nM | 0.0221 nM | 126 nM | 0.0304 nM | 0.0251 nM |
